# Details: acidic group
row,Compound,pKa
1,C=CCC1(C2C=CCCC2)C(=O)[N-]C(=S)NC1=O (centres undefined),12.2
2,Cc1cc(O)cc(C)[o+]1,0.38
3,[O-][n+]1c2ccccc2[n+](O)c2ccccc21,-1.62
4,O=C(O)CCCc1cccs1,4.54
5,COCCO,14.9
6,O=C(O)Cn1c2ccccc2c2ccccc21,3.55
7,Oc1cc2cccnc2c2cccnc12,8.5
8,[NH3+]CC/C=C/C(=O)O,3.83
9,O=C1CCC(=O)C1=O,8.48
10,C#CC#CC=C=CC(O)CCC(=O)O (centres undefined),4.8
11,[NH3+]CC(=O)O,2.36
12,CC[NH+](CC)CCCNC(=O)/C=N/O,8.75
13,C#CC(=O)O,1.89
14,CC(=O)CC(C)=O,8.85
15,COc1cc[n+](O)cc1,2.05
16,NC(=S)c1ccc([N+](=O)[O-])cc1,11.8
17,CC(=O)c1cc[nH]n1,11.8
18,Oc1ccccc1C1=[NH+]CCN1,6.63
19,Nc1nnc(S(N)(=O)=O)s1,7.69
20,Nc1ccc(S(=O)(=O)Nc2ccn(-c3ccc([N+](=O)[O-])cc3)n2)cc1,6.94
21,C[n+]1cc(O)c2ccccc2c1,4.93
22,S=c1[nH]c(=S)c2[nH]cnc2[nH]1,5.02
23,CN1c2ccccc2Nc2ccc(O)cc21,10.1

row,Compound,pKa
1,OCC(Cl)Cl,13.2
2,O=C([O-])C[NH+](CC(=O)[O-])Cc1cc(Cl)cc(C[NH+](CC(=O)[O-])CC(=O)[O-])c1O,6.27
3,[O-][n+]1cnc2[nH]cnc2c1NCc1ccccc1,8.22
4,Oc1ccc2cc(Br)ccc2c1,9.2
5,COc1cc(OC)nc(NS(=O)(=O)c2ccc(N)cc2)n1,7.12
6,CC(C)Nc1ncnc2[nH]ncc12,11
7,CCc1c(-c2ccccc2)n[nH]c1O,7.8
8,CCOC(=O)c1ccccc1-n1nc(O)cc1C,12.3
9,Cc1cccc2oc(=O)cc(O)c12,4.2
10,C[N+](C)(C)/N=C(/O)c1ccccc1,4.29
11,CC#CC#CC(=O)O,1.94
12,O=C(O)C1C2CCC1CC2 (centres undefined),4.85
13,O[n+]1ccccc1,0.77
14,[O-][n+]1cnc(NCc2ccccc2)c2nc[nH]c21,7.27
15,O=C([O-])CNC(=O)c1cccc(O)c1O,7.7
16,C[NH+]1C[C@H](C(=O)O)C[C@@]2(O)c3cccc4[nH]cc(c34)C[C@@H]12,3.42
17,CC1(C)OC(=O)CC(=O)O1,5.15
18,Cc1nn(C)c(O)c1Cc1ccccc1,10.9
19,C[NH2+]CCCC(=O)O,4.03
20,CCOC(=O)c1cc(C)[n+](O)c(C)c1,-0.13
21,[O-]B(O)c1cccc(O)c1,10.8
22,Nc1cc(N)c2cccnc2c1O,10.8
23,O=C(O)c1cc[n+]([O-])cc1,2.86

row,Compound,pKa
1,O=C(O)Cc1ccc(-c2ccccc2)cc1,4.46
2,CCC1(C)OC(=O)NC1=O (centres undefined),6
3,CC(C)c1csc(C(=O)O)c1,3.64
4,CCOC(=O)C1(CCC(=O)O)CCC(=O)NC1=O (centres undefined),4.35
5,COc1ccc2cc(O)ccc2c1,9.64
6,O=C(O)CSc1ccccc1[N+](=O)[O-],3.18
7,NC(=S)C(N)=S,10.9
8,O=C(O)CC1[NH2+]Nc2ccccc21 (centres undefined),2.9
9,[NH3+]CC#CC#CCCC(=O)O,4.05
10,CC(=O)CC(=O)C(F)(F)F,6.09
11,CC(=O)CC(=O)C(C)(C)C,9.94
12,Cc1cccc(C(=O)O)c1Cl,3
13,C=CC(CC(C)(C)C)c1ccc2cccnc2c1O (centres undefined),9.8
14,CCCCNc1cc[nH+]c(S)n1,3.2
15,O=C(O)Cc1ccc(Cl)s1,3.89
16,Nc1ccc(S(=O)(=O)Nc2nccs2)cc1,7.25
17,COc1cccc(S)c1,6.39
18,C/C(=C\C=C\C(C)C(=O)O)[C@H]1C[NH2+][C@H](C(=O)[O-])[C@H]1CC(=O)O (some centres undefined),3.72
19,CCOC(=O)C(CC)C(C)=O (centres undefined),12.7
20,CN(C)c1nnn[nH]1,5.92
21,CC(O)C(C(=O)O)c1ccc(-c2ccccc2)cc1 (centres undefined),4.3
22,CC(=O)CC(=O)Nc1ccc(C)cc1,10.2
23,COc1cnc[nH+]c1O,1.75

row,Compound,pKa
1,CCCCCCP(=O)(O)CCCCCC,3.24
2,CO[n+]1ccc(O)cc1,2.57
3,On1nnc2ccc(Br)cc21,3.97
4,Cc1nnc(S)n1N,7.97
5,O=C(O)c1ccc(I)o1,2.94
6,O=P([O-])([O-])C([NH2+]Cc1ccccn1)c1ccccc1O (centres undefined),10.2
7,O=S(=O)(Nc1ncccn1)c1ccc(O)cc1,6.37
8,CC(=O)c1ccccc1C(=O)O,4.15
9,OCc1nc2ccccc2[nH]1,12.1
10,CNc1nc(C)nc2[nH]ncc12,11.3
11,O=C(O)/C=C/c1cccc(O)c1,4.4
12,[NH3+]C/C=C/C(=O)O,3.55
13,COc1ncc2[nH]cnc2n1,9.2
14,O=[N+]([O-])CCO,9.4
15,[NH3+]Cc1ccc(C(=O)O)cc1,3.59
16,C[n+]1cc(O)cc2ccccc21,5.42
17,N#Cc1ccc(C(=O)S)cc1,1.42
18,O=C(O)c1ccc(Cl)cc1Cl,2.74
19,O=C(O)C#CI,2
20,N#CC(C#N)=NNc1ccccc1C(F)(F)F,5
